Measured values reported in patent US6350885B1, “Tricyclic heteroaromatics and their derivatives as inhibitors of matrix metalloproteinases” (Warner-Lambert Company, priority 1998, dated 2002).

Experiments:
[1] = molecular target: T1, MMP-3CD (stromelysin-1 catalytic domain) (Homo sapiens, UniProt P08254); assay: MMP inhibition, thiopeptolide substrate assay; type: biochemical; conditions: thiopeptolide substrate Ac-Pro-Leu-Gly-thioester-Leu-Leu-Gly-OEt
T1 construct: MMP-3CD (stromelysin-1 catalytic domain)
T1 sequence (P08254 100-272 limits assumed): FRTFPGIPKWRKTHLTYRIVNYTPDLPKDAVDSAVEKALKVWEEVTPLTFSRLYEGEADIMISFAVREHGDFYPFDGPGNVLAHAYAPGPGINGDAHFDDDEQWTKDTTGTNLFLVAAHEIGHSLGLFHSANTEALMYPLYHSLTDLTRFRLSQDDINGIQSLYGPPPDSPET
Procedure: (§1) Experiments were carried out with the full-length and catalytic domains of the proteinases. […] IC50 values were determined using a thiopeptolide substrate, Ac-Pro-Leu-Gly-thioester-Leu-Leu-Gly-OEt (Ye Q.-Z., Johnson L. L., Hupe D. J., and Baragi V., “Purification and Characterization of the Human Stromelysin Catalytic Domain Expressed in Escherichia coli,” Biochemistry, 1992;31:11231-11235; Ye Q.-Z., Johnson L. L., Yu A. E., and Hupe D., “Reconstructed 19 kDa catalytic domain of gelatinase A is an active proteinase,” Biochemistry, 1995;34:4702-4708.) MMP-13CD was expressed from a synthetic gene and purified from Escherichia coli cell culture according to a previously described method (Ye Q.-Z., Johnson L. L., and Baragi V., “Gene synthesis and expression in E. coli for PUMP, a human matrix metalloproteinase,” Biochemical and Biophysical Research Communications, 1992; 186:143-149).

[2] = molecular target: T2, MMP-14CD (membrane-type MMP-1) (Homo sapiens, UniProt P50281); assay: MMP inhibition, thiopeptolide substrate assay; type: biochemical; conditions: thiopeptolide substrate Ac-Pro-Leu-Gly-thioester-Leu-Leu-Gly-OEt; catalytic domain
T2 construct: Experiments were carried out with the full-length and catalytic domains of the proteinases
Procedure: as §1

[3] = molecular target: T3, MMP-9-FL (gelatinase B full length enzyme) (Homo sapiens, UniProt P14780); assay: MMP inhibition, thiopeptolide substrate assay; type: biochemical; conditions: thiopeptolide substrate Ac-Pro-Leu-Gly-thioester-Leu-Leu-Gly-OEt
T3 construct: MMP-9-FL (gelatinase B full length enzyme)
T3 sequence (P14780 94-707): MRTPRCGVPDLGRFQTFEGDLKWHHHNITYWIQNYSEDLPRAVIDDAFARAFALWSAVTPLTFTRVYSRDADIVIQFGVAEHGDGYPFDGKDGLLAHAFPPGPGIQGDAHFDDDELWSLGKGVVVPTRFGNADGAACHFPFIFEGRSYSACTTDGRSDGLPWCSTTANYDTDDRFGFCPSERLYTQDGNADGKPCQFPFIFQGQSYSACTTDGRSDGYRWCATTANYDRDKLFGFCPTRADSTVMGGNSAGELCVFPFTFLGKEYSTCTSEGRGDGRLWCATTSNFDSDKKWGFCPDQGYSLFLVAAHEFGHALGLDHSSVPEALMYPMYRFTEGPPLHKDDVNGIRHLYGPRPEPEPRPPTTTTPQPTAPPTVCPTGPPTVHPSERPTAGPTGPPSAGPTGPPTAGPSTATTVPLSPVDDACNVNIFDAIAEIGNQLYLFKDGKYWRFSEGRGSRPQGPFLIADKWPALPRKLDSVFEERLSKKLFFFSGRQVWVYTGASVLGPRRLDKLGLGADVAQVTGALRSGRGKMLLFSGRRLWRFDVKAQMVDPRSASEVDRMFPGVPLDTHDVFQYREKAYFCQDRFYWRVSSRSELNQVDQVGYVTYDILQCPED
Procedure: as §1

[4] = molecular target: MMP-2CD (gelatinase A catalytic domain) (Homo sapiens, UniProt P08253); assay: MMP inhibition, thiopeptolide substrate assay; type: biochemical; conditions: thiopeptolide substrate Ac-Pro-Leu-Gly-thioester-Leu-Leu-Gly-OEt
Sequence of MMP-2CD (gelatinase A catalytic domain) (P08253 with tags, fused parts or gaps DEL222-396): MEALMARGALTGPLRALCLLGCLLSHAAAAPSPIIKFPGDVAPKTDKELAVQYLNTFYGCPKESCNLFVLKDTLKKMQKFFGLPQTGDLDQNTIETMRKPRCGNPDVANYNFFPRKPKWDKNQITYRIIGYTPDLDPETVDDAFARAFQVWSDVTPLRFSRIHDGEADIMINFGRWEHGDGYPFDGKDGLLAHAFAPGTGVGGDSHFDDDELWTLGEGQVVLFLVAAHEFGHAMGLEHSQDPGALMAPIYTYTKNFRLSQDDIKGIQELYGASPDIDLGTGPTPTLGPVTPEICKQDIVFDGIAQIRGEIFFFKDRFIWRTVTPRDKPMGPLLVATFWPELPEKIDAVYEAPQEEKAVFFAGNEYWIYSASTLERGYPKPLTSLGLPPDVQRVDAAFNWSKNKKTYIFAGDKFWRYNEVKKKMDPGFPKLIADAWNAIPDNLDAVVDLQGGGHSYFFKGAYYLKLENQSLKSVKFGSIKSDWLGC
Procedure: as §1

[5] = molecular target: T4, MMP-2FL (gelatinase A full length enzyme) (Homo sapiens, UniProt P08253); assay: MMP inhibition, thiopeptolide substrate assay; type: biochemical; conditions: thiopeptolide substrate Ac-Pro-Leu-Gly-thioester-Leu-Leu-Gly-OEt
T4 construct: MMP-2FL (gelatinase A full length enzyme)
T4 sequence (P08253 110-660): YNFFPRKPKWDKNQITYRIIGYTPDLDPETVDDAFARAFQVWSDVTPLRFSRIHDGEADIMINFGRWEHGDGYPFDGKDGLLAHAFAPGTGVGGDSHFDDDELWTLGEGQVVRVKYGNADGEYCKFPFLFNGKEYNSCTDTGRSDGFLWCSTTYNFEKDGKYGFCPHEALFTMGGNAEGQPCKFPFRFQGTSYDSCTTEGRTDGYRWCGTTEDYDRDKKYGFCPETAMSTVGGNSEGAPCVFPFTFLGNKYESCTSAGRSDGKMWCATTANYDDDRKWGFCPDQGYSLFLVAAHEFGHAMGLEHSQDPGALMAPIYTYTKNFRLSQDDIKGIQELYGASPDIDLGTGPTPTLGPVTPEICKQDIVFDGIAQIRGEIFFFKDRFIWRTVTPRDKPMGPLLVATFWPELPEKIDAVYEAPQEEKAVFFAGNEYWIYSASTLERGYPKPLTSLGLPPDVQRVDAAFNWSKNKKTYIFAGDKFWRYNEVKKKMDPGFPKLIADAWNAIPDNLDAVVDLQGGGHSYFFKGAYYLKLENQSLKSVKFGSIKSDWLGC
Procedure: as §1

[6] = molecular target: T5, MMP-13CD (collagenase-3 catalytic domain) (Homo sapiens, UniProt P45452); assay: MMP inhibition, thiopeptolide substrate assay; type: biochemical; conditions: thiopeptolide substrate Ac-Pro-Leu-Gly-thioester-Leu-Leu-Gly-OEt; catalytic domain expressed in Escherichia coli from a synthetic gene
T5 construct: MMP-13CD (collagenase-3 catalytic domain); made in house; host or cells: Escherichia coli
Procedure: as §1

[7] = molecular target: T6, MMP-1FL (collagenase-1 full length enzyme) (Homo sapiens, UniProt P03956); assay: MMP inhibition, thiopeptolide substrate assay; type: biochemical; conditions: thiopeptolide substrate Ac-Pro-Leu-Gly-thioester-Leu-Leu-Gly-OEt
T6 construct: MMP-1FL (collagenase-1 full length enzyme)
T6 sequence (P03956 100-469): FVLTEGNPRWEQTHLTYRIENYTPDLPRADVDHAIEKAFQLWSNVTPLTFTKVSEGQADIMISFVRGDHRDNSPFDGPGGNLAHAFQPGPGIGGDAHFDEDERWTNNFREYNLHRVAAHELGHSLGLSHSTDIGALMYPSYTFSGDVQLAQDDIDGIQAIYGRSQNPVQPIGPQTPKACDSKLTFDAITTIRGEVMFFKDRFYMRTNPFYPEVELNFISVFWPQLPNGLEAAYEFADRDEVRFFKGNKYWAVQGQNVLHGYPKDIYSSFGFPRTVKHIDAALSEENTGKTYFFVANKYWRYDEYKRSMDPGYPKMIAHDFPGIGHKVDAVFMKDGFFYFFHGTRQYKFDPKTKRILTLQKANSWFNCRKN
Procedure: as §1

[8] = molecular target: T7, MMP-7FL (matrilysin full length enzyme) (Homo sapiens, UniProt P09237); assay: MMP inhibition, thiopeptolide substrate assay; type: biochemical; conditions: thiopeptolide substrate Ac-Pro-Leu-Gly-thioester-Leu-Leu-Gly-OEt
T7 construct: MMP-7FL (matrilysin full length enzyme)
T7 sequence (P09237 95-267): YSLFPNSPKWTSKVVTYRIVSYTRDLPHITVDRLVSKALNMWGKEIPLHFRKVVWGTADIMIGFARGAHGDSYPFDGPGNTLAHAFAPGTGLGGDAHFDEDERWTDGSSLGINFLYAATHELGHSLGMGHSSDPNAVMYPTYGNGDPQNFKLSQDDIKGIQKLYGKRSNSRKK
Procedure: as §1

melting point [°C]	IC50 [1] [µM]	IC50 [2] [µM]	IC50 [3] [µM]	IC50 [4] [µM]	IC50 [5] [µM]	IC50 [6] [µM]	IC50 [7] [µM]	IC50 [8] [µM]	Compound
164	0.114	0.24	32	0.0183	0.0595	1.21			O=C(O)CCC(=NO)c1ccc2c3c(oc2c1)CCCC3 [Example 1, 4-Hydroxyimino4-(6,7,8,9-tetrahydro-dibenzofuran-3-yl)-butyric acid]
	0.13	0.82		0.096	0.445	9.7	67	84	O=C(CC(CCCc1ccccc1)C(=O)O)c1ccc2c3c(oc2c1)CCCC3 (stereo not shown) [Example 2, 2-[2-Oxo-2-(6,7,8,9-tetrahydro-dibenzofuran-3-yl)-ethyl]-5-phenyl-pentanoic acid]
	0.315	2	14	0.0585	0.945	1.42	31	86	CN1C(=O)N(CC(CC(=O)c2ccc3c4c(oc3c2)CCCC4)C(=O)O)C(=O)C1(C)C (stereo not shown) [Example 3, 4-Oxo-4-(6,7,8,9-tetrahydro-dibenzofuran-3-yl)-2-(3,4,4-trimethyl-2,5-dioxo-imidazolidin-1-ylmethyl)-butyric acid]
